In patent publication US20240025862A1, “SUBSTITUTED N-PHENYLURACILS AND SALTS THEREOF, AND USE THEREOF AS HERBICIDAL ACTIVE SUBSTANCES” (Bayer Aktiengesellschaft, priority 2020, published 2024):

Assays:
Assay type in all cases: in vivo
Oryza sativa (ORYSA) = assay: Post-emergence crop plant compatibility, greenhouse pot test (also comparative test C); settings: for Post-emergence action against ORYSA (crop plant compatibility): vs untreated controls; for Post-emergence action against ORYSA in %: 20 g/ha, crop plant compatibility
Method in brief: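 Rice and other crops sprayed post-emergence at one-leaf stage (2–3 weeks after sowing) with WP or EC formulations plus 0.5% additive at 600 l/ha water. Visual rating about 3 weeks later versus untreated controls (100% = dead, 0% = like control); suffixes a–c denote different doses.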

Zea mays (ZEAMX) = assay: Post-emergence crop plant compatibility, greenhouse pot test; settings: vs untreated controls
Method in brief: (§1)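 Crop plants grown in sandy loam in the greenhouse were sprayed post-emergence at the one-leaf stage, 2–3 weeks after sowing, with WP or EC formulations as aqueous suspension/emulsion plus 0.5% additive at 600 l/ha. Damage was rated visually about 3 weeks later versus untreated controls (0% = like control, 100% = plants dead).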

[1] = system: Triticum aestivum (TRZAS); assay: as above; settings: vs untreated controls
Method in brief: as §1

Glycine max (GLXMA) = assay: as above; settings: 1.25 g/ha
Method in brief: as §1

Lolium rigidum (LOLRI) = assay: Post-emergence herbicidal action, greenhouse pot test; settings: dosage 20 g/ha
Method in brief: (§2)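 Greenhouse-grown weeds in sandy loam were sprayed post-emergence at the one-leaf stage, 2–3 weeks after sowing. Compounds were formulated as WP or EC in water with 0.5% additive at 600 l/ha, at rates of 20 g/ha or less. Visual rating after about 3 weeks used a scale from 0% (like untreated control) to 100% (plants dead).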

[2] = system: Pharbitis purpurea (PHBPU); assay: as above
Method in brief: as §2

Viola tricolor (VIOTR) = assay: as above
Method in brief: as §2

[3] = system: Abutilon theophrasti (ABUTH); assay: as above; settings: rated visually after about 3 weeks vs untreated controls, 100% = plants have died
Method in brief: as §2

Veronica persica (VERPE) = assay: as above
Method in brief: as §2

[4] = system: Polygonum convolvulus (POLCO); assay: as above
Method in brief: as §2

[5] = system: Amaranthus retroflexus (AMARE); assay: as above; settings: rated visually after about 3 weeks vs untreated controls, 100% = plants have died
Method in brief: as §2

Avena fatua (AVEFA) = assay: as above; settings: 20 g/ha, rated visually after about 3 weeks vs untreated controls, 100% = plants have died
Method in brief: as §2

[6] = system: Matricaria inodora (MATIN); assay: Post-emergence herbicidal action, greenhouse pot test (also comparative test C)
Method in brief: (§3)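 Greenhouse pot plants in sandy loam were sprayed post-emergence at the one-leaf stage (2–3 weeks after sowing) with WP or EC formulations plus 0.5% additive at 600 l/ha water. Activity was rated visually after about 3 weeks versus untreated controls (100% = dead, 0% = like control); rates were 20 g/ha or less, and 5 g/ha or less in the comparative test.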

Setaria viridis (SETVI) = assay: as above; settings: for Post-emergence action against SETVI: 20 g/ha
Method in brief: as §3

[7] = system: Echinochloa crus-galli (ECHCG); assay: as above
Method in brief: as §3

[8] = system: Alopecurus myosuroides (ALOMY); assay: as above; settings: rated visually after about 3 weeks vs untreated controls, 100% = plants have died
Method in brief: as §3

| SMILES | Post-emergence action against ORYSA (crop plant compatibility) (Oryza sativa (ORYSA); 1.25 g/ha) [%] | Post-emergence action against ORYSA (crop plant compatibility) (Oryza sativa (ORYSA); 5 g/ha) [%] | Post-emergence action against ORYSA in % (Oryza sativa (ORYSA)) [%] | Post-emergence action against ZEAMX (crop plant compatibility) (Zea mays (ZEAMX); 1.25 g/ha) [%] | Post-emergence action against TRZAS (crop plant compatibility) ([1]; 1.25 g/ha) [%] | Post-emergence action against TRZAS (crop plant compatibility) ([1]; 5 g/ha) [%] | Post-emergence action against GLXMA in % (Glycine max (GLXMA)) [%] | Post-emergence action against LOLRI in % (Lolium rigidum (LOLRI)) [%] | Post-emergence action against PHBPU in % ([2]; dosage 1.25 g/ha) [%] | Post-emergence action against PHBPU in % ([2]; dosage 5 g/ha) [%] | Post-emergence action against PHBPU in % ([2]; dosage 20 g/ha) [%] | Post-emergence action against VIOTR (Viola tricolor (VIOTR); 1.25 g/ha) [%] | Post-emergence action against VIOTR (Viola tricolor (VIOTR); 5 g/ha) [%] | Post-emergence action against VIOTR (Viola tricolor (VIOTR); 20 g/ha) [%] | Post-emergence action at 1.25 g/ha against ABUTH in % [3] [%] | Post-emergence action at 5 g/ha against ABUTH in % [3] [%] | Post-emergence action at 20 g/ha against ABUTH in % [3] [%] | Post-emergence action against VERPE (Veronica persica (VERPE); 5 g/ha) [%] | Post-emergence action against VERPE (Veronica persica (VERPE); 20 g/ha) [%] | Post-emergence action against POLCO in % ([4]; dosage 20 g/ha) [%] | other results |
| --- | --- | --- | --- | --- | --- | --- | --- | --- | --- | --- | --- | --- | --- | --- | --- | --- | --- | --- | --- | --- | --- |
| Cn1c(C(F)(F)F)cc(=O)n(-c2cc(Oc3ccccc3OCC(=O)OCc3ccccn3)c([N+](=O)[O-])cc2F)c1=O [I.6-276] | 0 | 10 | 20 | 10 | 10 | 10 | 20 | 90 | 100 | 100 | 100 | 100 | 100 | 100 | 100 | 100 | 100 | 100 | 100 | 100 | Post-emergence action at 1.25 g/ha against AMARE in % [5]: 100%; Post-emergence action at 5 g/ha against AMARE in % [5]: 100%; Post-emergence action at 20 g/ha against AMARE in % [5]: 100%; Post-emergence action at 20 g/ha against AVEFA in % (Avena fatua (AVEFA)): 80%; Post-emergence action against MATIN in % ([6]; dosage 5 g/ha): 100%; Post-emergence action against MATIN in % ([6]; dosage 20 g/ha): 100%; Post-emergence action against SETVI (Setaria viridis (SETVI)): 100%; Post-emergence action against SETVI in % (Setaria viridis (SETVI); dosage 1.25 g/ha): 100%; Post-emergence action against SETVI in % (Setaria viridis (SETVI); dosage 5 g/ha): 100%; Post-emergence action against ECHCG in % ([7]; dosage 5 g/ha): 90%; Post-emergence action against ECHCG in % ([7]; dosage 20 g/ha): 100%; Post-emergence action at 5 g/ha against ALOMY in % [8]: 80%; Post-emergence action at 20 g/ha against ALOMY in % [8]: 100% |
| COCCOCCOC(=O)COc1ccccc1Oc1cc(-n2c(=O)cc(C(F)(F)F)n(C)c2=O)c(F)cc1[N+](=O)[O-] [I.6-23] | 0 | 10 | 20 | 10 | 10 | 20 | 20 | 90 | 80 | 90 | 100 | 100 | 100 | 100 | 100 | 100 | 100 | 100 | 100 | 100 | Post-emergence action against ZEAMX (crop plant compatibility) (Zea mays (ZEAMX); 5 g/ha): 20%; Post-emergence action against TRZAS (crop plant compatibility) ([1]; 20 g/ha): 20%; Post-emergence action against VERPE (Veronica persica (VERPE); 1.25 g/ha): 100%; Post-emergence action against POLCO in % ([4]; dosage 1.25 g/ha): 90%; Post-emergence action against POLCO in % ([4]; dosage 5 g/ha): 100%; Post-emergence action at 1.25 g/ha against AMARE in % [5]: 100%; Post-emergence action at 5 g/ha against AMARE in % [5]: 100%; Post-emergence action at 20 g/ha against AMARE in % [5]: 100%; Post-emergence action at 20 g/ha against AVEFA in % (Avena fatua (AVEFA)): 90%; Post-emergence action against MATIN in % ([6]; dosage 1.25 g/ha): 80%; Post-emergence action against MATIN in % ([6]; dosage 5 g/ha): 100%; Post-emergence action against MATIN in % ([6]; dosage 20 g/ha): 100%; Post-emergence action against SETVI (Setaria viridis (SETVI)): 100%; Post-emergence action against SETVI in % (Setaria viridis (SETVI); dosage 1.25 g/ha): 100%; Post-emergence action against SETVI in % (Setaria viridis (SETVI); dosage 5 g/ha): 100%; Post-emergence action at 1.25 g/ha against ECHCG in % ([7]; 1.25 g/ha, rated visually after about 3 weeks vs untreated controls, 100% = plants have died): 80%; Post-emergence action against ECHCG in % ([7]; dosage 5 g/ha): 90%; Post-emergence action against ECHCG in % ([7]; dosage 20 g/ha): 100%; Post-emergence action at 5 g/ha against ALOMY in % [8]: 80%; Post-emergence action at 20 g/ha against ALOMY in % [8]: 90% |
